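Cells were grown in 96-well plates and exposed to each compound for 48 hours at five concentrations; endpoints were interpolated linearly between bracketing concentrations, or set to the highest concentration if not reached. GI50 marks 50% less growth. The concentration for full growth arrest is given as TGI.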
What was measured:
Test in all cases: inhibition of tumour cell growth, NCI panel, 48 h
[1] = system: A498 renal
[2] = system: DU-145 prostate
[3] = system: TK-10 renal
[4] = system: SF-295 CNS
[5] = system: IGROV1 ovarian
[6] = system: RXF 393 renal
[7] = system: T-47D breast
[8] = system: CCRF-CEM leukemia
[9] = system: K-562 leukemia
[10] = system: BT-549 breast
[11] = system: SF-268 CNS
[12] = system: MDA-MB-435
[13] = system: HOP-92 NSCLC
[14] = system: PC-3 prostate
[15] = system: HS 578T breast
[16] = system: UO-31 renal
[17] = system: RPMI-8226 leukemia
[18] = system: SK-MEL-5 melanoma
[19] = system: UACC-257 melanoma
[20] = system: SW-620 colon
[21] = system: SK-MEL-28 melanoma
[22] = system: NCI-H522 lung
[23] = system: KM12 colon
[24] = system: SN12C renal
[25] = system: OVCAR-8 ovarian
[26] = system: ACHN renal
[27] = system: OVCAR-3 ovarian
[28] = system: HCT-116 colon
[29] = system: SNB-19 CNS
[30] = system: HCT-15 colon
[31] = system: MDA-MB-231 breast
[32] = system: M14 melanoma
[33] = system: NCI-H460 lung
[34] = system: MCF7 breast
[35] = system: HL-60(TB) leukemia
[36] = system: CAKI-1 renal
[37] = system: HOP-62 NSCLC
[38] = system: SR leukemia
[39] = system: UACC-62 melanoma
[40] = system: LOX IMVI melanoma
[41] = system: EKVX NSCLC
[42] = system: NCI-H23 lung
[43] = system: A549 NSCLC
[44] = system: NCI/ADR-RES ovarian
[45] = system: OVCAR-5 ovarian
[46] = system: U251 CNS
[47] = system: 786-0 renal
[48] = system: COLO 205 colon
[49] = system: SK-OV-3 ovarian
[50] = system: SNB-75 CNS
[51] = system: NCI-H226 lung
[52] = system: HCC-2998 colon
[53] = system: OVCAR-4 ovarian
[54] = system: SF-539 CNS
[55] = system: MOLT-4 leukemia
[56] = system: HT29 colon
[57] = system: SK-MEL-2 melanoma

In the case of `CC(=O)Nc1ccc(-c2csc(Nc3ccc(-c4csc(-c5ccccc5)n4)cc3)n2)cc1`, the GI50 [1] is reported as 12.5 µM, the TGI [1] is reported as 25.6 µM and the GI50 [2] is reported as 36.1 µM. It also gave a TGI [2] of over 50 µM, a GI50 [3] of 16.4 µM and a TGI [3] of over 50 µM. It also gave a GI50 [4] of 36.3 µM, a TGI [4] of over 50 µM and a GI50 [5] of 10.9 µM. For the same compound, the TGI [5] was 40.2 µM, the GI50 [6] was 13.3 µM and the TGI [6] was over 50 µM. For the same compound, the GI50 [7] was 26.5 µM, the TGI [7] was over 50 µM and the GI50 [8] was over 50 µM. The TGI [8] was over 50 µM, the GI50 [9] was 5.52 µM and the TGI [9] was over 50 µM. For the same compound, the GI50 [10] was 11.4 µM, the TGI [10] was over 50 µM and the GI50 [11] was 19.9 µM. The TGI [11] was over 50 µM, the GI50 [12] was 19.1 µM and the TGI [12] was over 50 µM. It also gave a GI50 [13] of over 50 µM, a TGI [13] of over 50 µM and a GI50 [14] of 20.6 µM. It also gave a TGI [14] of over 50 µM, a GI50 [15] of 40.9 µM and a TGI [15] of over 50 µM. It also gave a GI50 [16] of over 50 µM, a TGI [16] of over 50 µM and a GI50 [17] of over 50 µM. It also gave a TGI [17] of over 50 µM, a GI50 [18] of 11.1 µM and a TGI [18] of 41.2 µM. For the same compound, the GI50 [19] was over 50 µM, the TGI [19] was over 50 µM and the GI50 [20] was over 50 µM. The TGI [20] was over 50 µM, the GI50 [21] was 7.14 µM and the TGI [21] was 42.9 µM. It also gave a GI50 [22] of 16.3 µM, a TGI [22] of 41.5 µM and a GI50 [23] of 25.5 µM. The TGI [23] was over 50 µM, the GI50 [24] was 5.64 µM and the TGI [24] was 23.9 µM. For the same compound, the GI50 [25] was 10.7 µM, the TGI [25] was over 50 µM and the GI50 [26] was 7.53 µM. For the same compound, the TGI [26] was 27.9 µM, the GI50 [27] was over 50 µM and the TGI [27] was over 50 µM. It also gave a GI50 [28] of over 50 µM, a TGI [28] of over 50 µM and a GI50 [29] of 16.5 µM. For the same compound, the TGI [29] was over 50 µM, the GI50 [30] was 17.4 µM and the TGI [30] was over 50 µM. It also gave a GI50 [31] of 6.94 µM, a TGI [31] of 27.8 µM and a GI50 [32] of over 50 µM. The TGI [32] was over 50 µM, the GI50 [33] was 7.94 µM and the TGI [33] was over 50 µM. The GI50 [34] was 16.3 µM, the TGI [34] was over 50 µM and the GI50 [35] was 37.4 µM. The TGI [35] was over 50 µM, the GI50 [36] was 20.9 µM and the TGI [36] was over 50 µM. For the same compound, the GI50 [37] was over 50 µM, the TGI [37] was over 50 µM and the GI50 [38] was 9.64 µM. It also gave a TGI [38] of 45.2 µM, a GI50 [39] of 5.98 µM and a TGI [39] of over 50 µM. It also gave a GI50 [40] of 31 µM, a TGI [40] of over 50 µM and a GI50 [41] of 12.9 µM. For the same compound, the TGI [41] was over 50 µM, the GI50 [42] was 3.73 µM and the TGI [42] was 20.1 µM. For the same compound, the GI50 [43] was 12.6 µM, the TGI [43] was over 50 µM and the GI50 [44] was 11.1 µM. The TGI [44] was 37.2 µM, the GI50 [45] was 12.6 µM and the TGI [45] was 42.6 µM. It also gave a GI50 [46] of 7.16 µM, a TGI [46] of 21.3 µM and a GI50 [47] of 32.2 µM. The TGI [47] was over 50 µM, the GI50 [48] was over 50 µM and the TGI [48] was over 50 µM. The GI50 [49] was 9.08 µM and the TGI [49] was over 50 µM.
`COc1ccc(-c2[nH]c(=O)n(C3OC(CO)C(O)C(O)C3O)c(=O)c2C#N)cc1` (centres undefined) gave a TGI [1] of over 100 µM, a TGI [2] of over 100 µM and a TGI [3] of over 100 µM. For the same compound, the TGI [4] was over 100 µM, the TGI [5] was over 100 µM and the TGI [6] was over 100 µM. For the same compound, the TGI [7] was over 100 µM, the TGI [8] was over 100 µM and the TGI [50] was over 100 µM. It also gave a TGI [9] of over 100 µM, a TGI [10] of over 100 µM and a TGI [11] of over 100 µM. It also gave a TGI [12] of over 100 µM, a TGI [13] of over 100 µM and a TGI [14] of over 100 µM. The TGI [15] was over 100 µM, the TGI [16] was over 100 µM and the TGI [51] was over 100 µM. For the same compound, the TGI [17] was over 100 µM, the TGI [52] was over 100 µM and the TGI [18] was over 100 µM. The TGI [19] was over 100 µM, the TGI [20] was over 100 µM and the TGI [21] was over 100 µM. It also gave a TGI [22] of over 100 µM, a TGI [23] of over 100 µM and a TGI [24] of over 100 µM. For the same compound, the TGI [25] was over 100 µM, the TGI [26] was over 100 µM and the TGI [53] was over 100 µM. It also gave a TGI [27] of over 100 µM, a TGI [28] of over 100 µM and a TGI [29] of over 100 µM. The TGI [30] was over 100 µM, the TGI [31] was over 100 µM and the TGI [32] was over 100 µM. For the same compound, the TGI [54] was over 100 µM, the TGI [33] was over 100 µM and the TGI [34] was over 100 µM. The TGI [55] was over 100 µM, the TGI [35] was over 100 µM and the TGI [56] was over 100 µM. For the same compound, the TGI [36] was over 100 µM, the TGI [37] was over 100 µM and the TGI [38] was over 100 µM. The TGI [39] was over 100 µM, the TGI [41] was over 100 µM and the TGI [42] was over 100 µM. It also gave a TGI [57] of over 100 µM, a TGI [43] of over 100 µM and a TGI [44] of over 100 µM. It also gave a TGI [45] of over 100 µM, a TGI [46] of over 100 µM and a TGI [47] of over 100 µM. For the same compound, the TGI [48] was over 100 µM and the TGI [49] was over 100 µM.

Source: PubChem BioAssay (NCI)
